PubChem BioAssay AID248 (DTP/NCI, 2004)
Values joined by “and” are separate entries in the source; they are usually repeats but may differ in a detail not shown here. Equal values may be shown once. Inconclusive results and toxic doses are left out. Rule as the data show it: active = T/C of 150% or more; inactive = T/C below 125%.

System: L1210 leukemia ip in BDF1 mice, survival T/C
Assay: NCI In Vivo Anticancer Drug Screen. Data for tumor model L1210 Leukemia (intraperitoneal) in B6D2F1 (BDF1) mice
Conditions: endpoint: mean survival time, higher = longer survival
Summary of the method: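 Mice bearing the transplanted tumor received compound or vehicle. Survival of the treated group was divided by that of the vehicle-treated control group to give the ratio.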

[1] = dose: 100.0 mg/kg/injection, schedule: Q04DX003 (ip), vehicle: saline
[2] = dose: 100.0 mg/kg/injection, schedule: Q04DX003 (ip), vehicle: Klucel (hydroxypropylcellulose) (HPC)
[3] = dose: 200.0 mg/kg/injection, schedule: Q04DX003 (ip), vehicle: Klucel (hydroxypropylcellulose) (HPC)
[4] = dose: 400.0 mg/kg/injection, schedule: Q04DX003 (ip), vehicle: Klucel (hydroxypropylcellulose) (HPC)
[5] = dose: 100.0 mg/kg/injection, schedule: Q01DX009 (ip), vehicle: saline with Tween-80
[6] = dose: 200.0 mg/kg/injection, schedule: Q01DX009 (ip), vehicle: saline with Tween-80
[7] = dose: 400.0 mg/kg/injection, schedule: Q01DX009 (ip), vehicle: saline with Tween-80
[8] = dose: 100.0 mg/kg/injection, schedule: Q01DX009 (ip), vehicle: Klucel (hydroxypropylcellulose) (HPC)
[9] = dose: 200.0 mg/kg/injection, schedule: Q01DX009 (ip), vehicle: Klucel (hydroxypropylcellulose) (HPC)
[10] = dose: 400.0 mg/kg/injection, schedule: Q01DX009 (ip), vehicle: Klucel (hydroxypropylcellulose) (HPC)
[11] = dose: 100.0 mg/kg/injection, schedule: Q04DX003 (ip), vehicle: saline with Tween-80
[12] = dose: 200.0 mg/kg/injection, schedule: Q04DX003 (ip), vehicle: saline with Tween-80
[13] = dose: 400.0 mg/kg/injection, schedule: Q04DX003 (ip), vehicle: saline with Tween-80
[14] = dose: 100.0 mg/kg/injection, schedule: Q01DX001 (ip), vehicle: saline
[15] = dose: 200.0 mg/kg/injection, schedule: Q01DX001 (ip), vehicle: saline
[16] = dose: 400.0 mg/kg/injection, schedule: Q01DX001 (ip), vehicle: saline
[17] = dose: 50.0 mg/kg/injection, schedule: Q01DX009 (ip), vehicle: saline
[18] = dose: 100.0 mg/kg/injection, schedule: Q01DX009 (ip), vehicle: saline
[19] = dose: 100.0 mg/kg/injection, schedule: Q04DX002 (ip), vehicle: Klucel (hydroxypropylcellulose) (HPC)
[20] = dose: 200.0 mg/kg/injection, schedule: Q04DX002 (ip), vehicle: Klucel (hydroxypropylcellulose) (HPC)
[21] = dose: 400.0 mg/kg/injection, schedule: Q04DX002 (ip), vehicle: Klucel (hydroxypropylcellulose) (HPC)

Measured: T/C

CCOC(=O)NC(NC(=O)OCC)c1ccco1
inactive: dose: 100.0 mg/kg/injection, schedule: Q01DX001 (ip), vehicle: other 98 % of control | dose: 200.0 mg/kg/injection, schedule: Q01DX001 (ip), vehicle: other 98 % of control | dose: 400.0 mg/kg/injection, schedule: Q01DX001 (ip), vehicle: other 89 % of control

CCCCCCCCCCCSSCCCCCCCCCCC
inactive: dose: 100.0 mg/kg/injection, schedule: Q04DX003 (ip), vehicle: other 96 % of control | dose: 200.0 mg/kg/injection, schedule: Q04DX003 (ip), vehicle: other 96 % of control | dose: 400.0 mg/kg/injection, schedule: Q04DX003 (ip), vehicle: other 97 % of control

Cn1c(NN)cc(=O)n(C)c1=O
inactive: dose: 75.0 mg/kg/injection, schedule: Q04DX003 (ip), vehicle: saline 107 % of control | dose: 150.0 mg/kg/injection, schedule: Q04DX003 (ip), vehicle: saline 94 % of control | dose: 300.0 mg/kg/injection, schedule: Q04DX003 (ip), vehicle: saline 104 % of control

CC(=O)N(C)c1ccc(NC(=O)Nc2ccc([N+](=O)[O-])cc2Cl)cc1
inactive: [1] 96 % of control | dose: 200.0 mg/kg/injection, schedule: Q04DX003 (ip), vehicle: saline 95 % of control | dose: 400.0 mg/kg/injection, schedule: Q04DX003 (ip), vehicle: saline 88 % of control

CN(C)P(=O)(Nc1ccc(Cl)cc1)Nc1ccc(Cl)cc1
inactive: [2] 94 % of control | [3] 96 % of control | [4] 100 % of control

O=C1OC2CCCCC2c2ccccc21 (stereo unspecified)
inactive: [5] 98 % of control | [6] 103 % of control | [7] 103 % of control

COC(=O)c1ccccc1NC(=O)c1c(-c2ccccc2Cl)noc1C
inactive: [8] 99 % of control | [9] 94 % of control | [10] 98 % of control

CCCCCCCCCCCCCC(=O)CC
inactive: dose: 90.0 mg/kg/injection, schedule: Q01DX009 (ip), vehicle: saline with Tween-80 98 % of control | [5] 92 % of control and 96 % of control | [11] 96 % of control | dose: 135.0 mg/kg/injection, schedule: Q01DX009 (ip), vehicle: saline with Tween-80 87 % of control | [6] 87 % of control and 88 % of control | [12] 96 % of control | dose: 300.0 mg/kg/injection, schedule: Q01DX009 (ip), vehicle: saline with Tween-80 92 % of control | [7] 97 % of control and 105 % of control | [13] 102 % of control

O=S=Nc1cc(Cl)c(Cl)cc1Cl
inactive: dose: 25.0 mg/kg/injection, schedule: Q04DX002 (ip), vehicle: saline 103 % of control | dose: 50.0 mg/kg/injection, schedule: Q04DX002 (ip), vehicle: saline 100 % of control | dose: 100.0 mg/kg/injection, schedule: Q04DX002 (ip), vehicle: saline 95 % of control and 109 % of control

Cc1cc(C)c(S(=O)(=O)Nc2cc(C)ccc2C)c(C)c1
inactive: [8] 100 % of control | [9] 96 % of control | [10] 100 % of control

N#CC(C#N)=CN1CCCCCC1
inactive: dose: 6.25 mg/kg/injection, schedule: Q01DX009 (ip), vehicle: saline with Tween-80 93 % of control | dose: 6.25 mg/kg/injection, schedule: Q04DX003 (ip), vehicle: saline with Tween-80 96 % of control | dose: 12.5 mg/kg/injection, schedule: Q01DX009 (ip), vehicle: saline with Tween-80 94 % of control | dose: 12.5 mg/kg/injection, schedule: Q04DX003 (ip), vehicle: saline with Tween-80 92 % of control | dose: 25.0 mg/kg/injection, schedule: Q01DX009 (ip), vehicle: saline with Tween-80 89 % of control | dose: 25.0 mg/kg/injection, schedule: Q04DX003 (ip), vehicle: saline with Tween-80 94 % of control

S=c1[nH]c2ccccc2n1CCc1ccncc1
inactive: [14] 100 % of control | [15] 97 % of control | [16] 95 % of control

CCCCCCN1CC1
inactive: dose: 15.0 mg/kg/injection, schedule: Q01DX001 (ip), vehicle: saline 102 % of control | dose: 30.0 mg/kg/injection, schedule: Q01DX001 (ip), vehicle: saline 98 % of control

COP(=O)(OC)OCc1cnc(SC)nc1N
inactive: dose: 25.0 mg/kg/injection, schedule: Q01DX009 (ip), vehicle: saline 100 % of control | dose: 25.0 mg/kg/injection, schedule: Q04DX003 (ip), vehicle: saline 100 % of control | [17] 102 % of control | dose: 50.0 mg/kg/injection, schedule: Q04DX003 (ip), vehicle: saline 105 % of control | [18] 98 % of control | [1] 101 % of control and 102 % of control

O=P(NCCO)(OCC(Br)CBr)OCC(Br)CBr (stereo unspecified)
inactive: dose: 50.0 mg/kg/injection, schedule: Q01DX009 (ip), vehicle: saline with Tween-80 94 % of control | [5] 102 % of control | [6] 98 % of control

c1ccc(C(CC(c2ccccc2)(c2ccccc2)c2ccccc2)(c2ccccc2)c2ccccc2)cc1
inactive: [14] 96 % of control | [15] 94 % of control | [16] 105 % of control

Nc1cc(F)c2c(c1)C(=O)c1cc(F)ccc1-2
inactive: dose: 50.0 mg/kg/injection, schedule: Q01DX001 (ip), vehicle: carboxymethylcellulose (CMC) 93 % of control | dose: 50.0 mg/kg/injection, schedule: Q04DX003 (ip), vehicle: Klucel (hydroxypropylcellulose) (HPC) 96 % of control | dose: 100.0 mg/kg/injection, schedule: Q01DX001 (ip), vehicle: carboxymethylcellulose (CMC) 95 % of control | [2] 96 % of control | dose: 200.0 mg/kg/injection, schedule: Q01DX001 (ip), vehicle: carboxymethylcellulose (CMC) 95 % of control | [3] 98 % of control | dose: 400.0 mg/kg/injection, schedule: Q01DX001 (ip), vehicle: carboxymethylcellulose (CMC) 95 % of control

COC1OC(CCl)C(OS(=O)(=O)c2ccc(C)cc2)C(OS(=O)(=O)c2ccc(C)cc2)C1OS(=O)(=O)c1ccc(C)cc1 (stereo unspecified)
inactive: [19] 90 % of control | [20] 93 % of control | [21] 97 % of control

CCOC(=O)C1(C)CCCCC1=O (stereo unspecified)
inactive: dose: 100.0 mg/kg/injection, schedule: Q01DX009 (ip), vehicle: saline sonified 110 % of control | dose: 200.0 mg/kg/injection, schedule: Q01DX009 (ip), vehicle: saline sonified 96 % of control | dose: 400.0 mg/kg/injection, schedule: Q01DX009 (ip), vehicle: saline sonified 105 % of control

CCCCCCCCCCCCCCCCCC(=O)Oc1c(C(C)(C)C)cc([N+](=O)[O-])c(C)c1[N+](=O)[O-]
inactive: [19] 92 % of control | [20] 92 % of control | [21] 96 % of control

COC(=O)C/C(=C\c1ccc(OC)c(OC)c1)C(=O)OC
inactive: [8] 100 % of control | [2] 91 % of control | [9] 94 % of control | [3] 95 % of control | [10] 103 % of control | [4] 96 % of control

O=C(N/N=C/c1ccccc1Cl)c1ccccc1
inactive: [11] 96 % of control | [12] 101 % of control | [13] 88 % of control

O=C(O)CCC(=O)/C=C1/Nc2ccccc2C1=O
inactive: [11] 88 % of control | [12] 90 % of control | [13] 88 % of control

CN(C)c1nc(C(=O)O)cc(=O)[nH]1
inactive: dose: 100.0 mg/kg/injection, schedule: Q01DX Z (ip), vehicle: saline 101 % of control | dose: 200.0 mg/kg/injection, schedule: Q01DX Z (ip), vehicle: saline 100 % of control

Cc1nc(-c2ccc(N=Cc3ccc(N(CCCl)CCCl)cc3)cc2)cs1
inactive: [17] 101 % of control | [14] 101 % of control | [18] 104 % of control | [15] 90 % of control | dose: 200.0 mg/kg/injection, schedule: Q01DX009 (ip), vehicle: saline 98 % of control | [16] 89 % of control | dose: 400.0 mg/kg/injection, schedule: Q01DX009 (ip), vehicle: saline 102 % of control
